Assay results: patent US20220242958A1, “BISPECIFIC NANOBODIES” (Ablynx N.V., priority 2013, published 2022)

Tests used:
[1] = tested on: X4 HIV-1 clone NL4.3 (U87 cells); test: HIV-1 infection assay, U87 cells + NL4.3; assay type: cell-based; details: Human immunodeficiency virus 1, U-87 MG; n = 3; read-out: IC50 (nM) U87 + NL 4.3 (X4)
[2] = tested on: X4 HIV-1 clone NL4.3 (PBMCs); test: microbe, parasite or virus in culture; assay type: cell-based; details: Human immunodeficiency virus 1, PBMC, read-out: IC50 (nM) PBMC + NL 4.3(X4)
[3] = tested on: HIV-1 NL4.3 AMD-3100 res. variant; assay type: cell-based; details: versus wild-type NL4.3
[4] = tested on: dual-tropic (R5/X4) HIV-1 HE strain; test: HIV infection assay, MT-4 cells + HIV-1 HE; assay type: cell-based; details: Human immunodeficiency virus 1, MT4
From the text: (§1) Viral strains used were the X4 HIV-1 clone NL4.3, R5 HIV-1 strain BaL, or the R5/X4 HIV-1 HE strain. Infection was done in MT-4 cells or phytohemagglutin-stimulated PBMCs from different healthy donors. The CXCR4-using (X4) HIV-1 clone NL4.3 was obtained from the National Institutes of Health NIAID AIDS Reagent program (Bethesda, Md.), the CCR5-using (R5) HIV-1 strain BaL was obtained from the Medical Research Council AIDS reagent project (Herts, UK). The dual-tropic (R5/X4) HIV-1 HE strain was initially isolated from a patient at the University Hospital in Leuven. The MT-4 cells were seeded out in 96-well plate and the U87 cells in 24-well plates. Nanobodies were added at different concentrations together with HIV-1 and the plates were maintained at 37° C. in 10% CO2. Cytopathic effect induced by the virus was monitored by daily microscopic evaluation of the virus-infected cell cultures. […] The absorbance was measured spectrophotometrically at 490 nm with a 96-well plate reader (Molecular Devices, Sunnyvale, Calif.) and compared with four cell control replicates (cells without virus and drugs) and four virus control wells (virus-infected cells without drugs). The IC50, i.e., the drug concentration that inhibits HIV-induced cell death by 50%, was calculated for each polypeptide from the dose-response curve. […]

HIV-2 ROD = test: HIV infection assay, MT-4 cells + HIV-2 ROD; assay type: cell-based; details: Human immunodeficiency virus 2, MT4
From the text: as §1

hEGFR ECD = target: T1, hEGFR ECD (Homo sapiens, UniProt P00533); test: SPR (Biacore T100) on hEGFR extracellular domain; assay type: binding
T1 construct: directly immobilized hEGFR extracellular domain (Sino Biological, #10001-H08H); purchased Sino Biological 10001-H08H

| Compound | IC50 [1] [nM] | IC50 [2] [nM] | loss in potency towards AMD3100 resistant virus [3] [fold] | IC50 [4] [nM] | IC50 (HIV-2 ROD) [nM] | hEGFR ECD ka (hEGFR ECD) [M⁻¹ s⁻¹] | hEGFR ECD kd (hEGFR ECD) [s⁻¹] |
| --- | --- | --- | --- | --- | --- | --- | --- |
| c1cc(CN2CCCNCCNCCCNCC2)ccc1CN1CCCNCCNCCCNCC1 [AMD3100, reference compound] | 10 | 1.91 | ~100 | 3.9 | 21.1 | – | – |
| EGFR#11: EGFR Nanobody variant 7C12 (A1E, Q108L) | – | – | – | – | – | 220000 | 0.037 |
| EGFR#32: EGFR Nanobody variant 7C12(A1E, E100fS, Q108L) | – | – | – | – | – | 270000 | 0.23 |
